Results on eleven compounds are retold here after PubChem BioAssay (NCI).

Each structure is given as a SMILES string.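 Growth conditions: 96-well plates. Treatment: test compound, 48 hours, 5 concentrations. Analysis: linear interpolation between bracketing concentrations; unreached endpoints set to highest concentration. At the GI50, growth is halved. At the TGI there is no net growth.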 *1 amine or outer side, *2 acyl side, *3 side chain or, on linkers, in order; H or OH if unused. Where a SMILES comes first, the peptide text is derived from it. [ ]: non-standard residue; d: D form. The star is where a group is joined. X12 = NCCCCC(N[*:1])C(=O)CN1CCCC1C(=O)[*:2]; Pentadecanoyl = CCCCCCCCCCCCCCC(=O)*

Among the test systems are U251 CNS; HOP-62 NSCLC; T-47D breast; IGROV1 ovarian; COLO 205 colon; 786-0 renal; SK-OV-3 ovarian; SK-MEL-5 melanoma; NCI-H522 lung; UO-31 renal.
Common to all, as to assay: NCI anticancer screen, dose series, 48 h

As to `COc1ccc(C2CCc3c(cnc4nc(N)nc(N)c34)C2)cc1` (stereo not drawn), the TGI in the assay with U251 CNS was > 100 µM; in the assay on HOP-62 NSCLC, 65 µM; in the assay on T-47D breast it was 95.3 µM; with IGROV1 ovarian, > 100 µM; with COLO 205 colon, > 100 µM; with 786-0 renal, 26.8 µM. In addition, the TGI with SK-OV-3 ovarian was 50.1 µM; in the assay on SK-MEL-5 melanoma it was > 100 µM; in the assay on NCI-H522 lung, 44.9 µM.

In the case of `O=c1[nH]c(=O)c2c([nH]1)[nH]c1ccccc12`, the TGI in the assay with UO-31 renal, with HOP-62 NSCLC, in the assay on T-47D breast, in the assay on IGROV1 ovarian, in the assay with COLO 205 colon and in the assay with 786-0 renal was > 100 µM in each case. In addition, the TGI with SK-OV-3 ovarian, in the assay on SK-MEL-5 melanoma and in the assay with NCI-H522 lung was > 100 µM throughout.

In the case of `CC1=CCC(=O)[C@]2(C)C(CC(=O)O)[C@]3(C)C4=C(C)C(c5ccoc5)C[C@@H]4O[C@@H]3[C@H](O)[C@@H]12` (stereo partly drawn), the TGI with UO-31 renal, in the assay on U251 CNS, in the assay on T-47D breast, with IGROV1 ovarian, in the assay with COLO 205 colon and with 786-0 renal was > 100 µM throughout. Also, the TGI in the assay with SK-OV-3 ovarian, with SK-MEL-5 melanoma and with NCI-H522 lung was > 100 µM each time.

Take `O=C1CSC(c2cc3cc(Br)ccc3nc2Cl)N1c1ccc(F)c(Cl)c1` (stereo not drawn): the TGI with UO-31 renal, in the assay on HOP-62 NSCLC, in the assay on T-47D breast, with IGROV1 ovarian, in the assay with COLO 205 colon and in the assay on 786-0 renal was > 50 µM throughout. The TGI with SK-OV-3 ovarian, with SK-MEL-5 melanoma and in the assay on NCI-H522 lung was > 50 µM each time.

`CCCCCCCCCCCCCCC(=O)NC(CCCCN)C(=O)CN1CCCC1C(=O)NCC(=O)NC(Cc1ccccc1)C(=O)N1CCCC1C(=O)NC(CO)C(=O)NC(Cc1ccc(O)cc1)C(=O)NC(CCCCN)C(=O)NC(CC(C)C)C(=O)NC(CCCN=C(N)N)C(=O)N1CCCC1C(=O)NCC(N)=O` (stereo not drawn) (Pentadecanoyl-[X12]GFPSYKLRPG-NH2; configuration not given here): the GI50 is 22.6 µM with UO-31 renal; 20.5 µM in the assay on HOP-62 NSCLC; 17.2 µM in the assay on T-47D breast; 19.5 µM in the assay on IGROV1 ovarian; 15.6 µM in the assay on COLO 205 colon; 23.5 µM with SK-OV-3 ovarian. Also, the results for the GI50 in the assay with SK-MEL-5 melanoma and in the assay on NCI-H522 lung were 30.5 µM and 23.1 µM, respectively. Moreover, the TGI in the assay on UO-31 renal came to 60.2 µM; in the assay on HOP-62 NSCLC, 45.2 µM; in the assay on T-47D breast, 40.7 µM; in the assay with IGROV1 ovarian, 57.3 µM; in the assay on COLO 205 colon it was 33.8 µM; in the assay with SK-OV-3 ovarian, 43.4 µM. Also, the TGI was > 100 µM in the assay on SK-MEL-5 melanoma and 55.6 µM with NCI-H522 lung.

As for `Cc1nc2ccccc2nc1N1CCCC1`, the TGI in the assay with U251 CNS, in the assay with HOP-62 NSCLC, with T-47D breast, in the assay with IGROV1 ovarian, in the assay on COLO 205 colon and in the assay with 786-0 renal was > 100 µM in each case. The TGI with SK-OV-3 ovarian, with SK-MEL-5 melanoma and in the assay with NCI-H522 lung was > 100 µM throughout.

Take `Cc1cc(S(=O)(=O)Nc2n[nH]c(N)n2)c(S)cc1Cl`: the TGI with U251 CNS, with HOP-62 NSCLC, in the assay with T-47D breast, in the assay on IGROV1 ovarian, in the assay with COLO 205 colon and in the assay on 786-0 renal was > 10 µM each time. For the same compound, the TGI in the assay on SK-OV-3 ovarian, in the assay on SK-MEL-5 melanoma and with NCI-H522 lung was > 10 µM throughout.

With `C[C@@H]1CC(=O)[C@@]2(C)[C@](O)(CCC3O[C@]32C)[C@@]12CC(c1ccoc1)OC2=O` (stereo partly drawn), the TGI in the assay on UO-31 renal, in the assay on U251 CNS, with T-47D breast, in the assay with IGROV1 ovarian, in the assay on COLO 205 colon and in the assay on 786-0 renal was > 100 µM each time. Also, the TGI with SK-OV-3 ovarian, in the assay with SK-MEL-5 melanoma and in the assay with NCI-H522 lung was > 100 µM in each case.

For the compound `COc1ccc(Cn2nc(OCc3ccccc3)c3cc([N+](=O)[O-])ccc32)cc1`, the TGI with HOP-62 NSCLC, in the assay on T-47D breast, in the assay with IGROV1 ovarian, in the assay with 786-0 renal, in the assay on SK-OV-3 ovarian and with SK-MEL-5 melanoma was > 100 µM each time. Moreover, the TGI with NCI-H522 lung was > 100 µM.

With `CC1C/C(=C\c2ccc(O)c(O)c2)C(=O)/C(=C/c2ccc(O)c(O)c2)C1` (stereo not drawn), the TGI is 18.1 µM in the assay with U251 CNS; 24.4 µM with HOP-62 NSCLC; 27.8 µM in the assay with T-47D breast; 19.8 µM in the assay with IGROV1 ovarian; 32.2 µM with COLO 205 colon; 53.1 µM in the assay with SK-OV-3 ovarian. The TGI in the assay with SK-MEL-5 melanoma was 13.7 µM; in the assay on NCI-H522 lung, 3.58 µM.

With `N#Cc1c(NC(=S)Nc2ccccc2)sc2c1CCCC2`, the TGI with UO-31 renal, in the assay with U251 CNS, in the assay on HOP-62 NSCLC, with T-47D breast, with IGROV1 ovarian and in the assay with COLO 205 colon was > 100 µM in each case. Besides, the TGI in the assay on 786-0 renal, with SK-MEL-5 melanoma and in the assay with NCI-H522 lung was > 100 µM in each case.
